From ChEMBL document CHEMBL3576796, “A Broad Anti-influenza Hybrid Small Molecule That Potently Disrupts the Interaction of Polymerase Acidic Protein-Basic Protein 1 (PA-PB1) Subunits” (J Med Chem, 2015)

Experiment: Antiviral activity against Influenza A virus A/Parma/24/09 (H1N1) (Oseltamivir-resistant) assessed as reduction in plaque formation after 48 hrs by plaque reduction assay
Type: functional, Influenza A virus (A/Parma/24/2009(H1N1))

Point of comparison: `Cc1cc(-c2ccccc2)nc2nc(C(=O)Nc3sc4c(c3C(N)=O)CCCCC4)nn12`, EC50 5 µM. Against it:
- CCCOc1ccc(C(=O)Nc2nc3n(n2)C(c2ccccc2)C=C(C)N3)cc1 (centres undefined) — 9.8-fold higher, 49 µM
- Cc1cc(-c2ccccc2)nc2nc(NC(=O)c3ccccc3)nn12 — 5-fold higher, 25 µM
- Cc1cc(-c2ccccc2)n2nc(C(=O)Nc3sc4c(c3C(N)=O)CCCCC4)nc2n1 — 5-fold higher, 25 µM
